Source: patent US10494355B2, “Oxadiazole amine derivative compounds as histone deacetylase 6 inhibitor, and the pharmaceutical composition comprising the same” (Chong Kun Dang Pharmaceutical Corp., priority 2015, dated 2019)

What was measured:
human recombinant HDAC1 = target: T1, human recombinant HDAC1 (Homo sapiens, UniProt Q13547); experiment: HDAC1 enzyme activity inhibition assay (HDAC Fluorimetric Drug Discovery Kit); format: biochemical; details: human recombinant HDAC1, 10 μM substrate, 30° C. 60 minutes
T1 construct: purchased Enzo Life Science BML-SE456
Experimental: (§1) In order to examine the HDAC6 selectivity of the compounds of formula I of the present invention by HDAC1 and HDAC6 enzymatic activity inhibition assays, an experiment was performed using a conventional substance as a control.
(§2) HDAC enzyme activity was measured using a HDAC Fluorimetric Drug Discovery Kit (BML-AK511, 516, Enzo Life Science). For the HDAC1 enzyme activity test, human recombinant HDAC1 (BML-SE456) was used as an enzyme source, and Fluor de Lys®-“SIRT1 (BNL-KI177) was used as a substrate. A 5-fold dilution of the compound was seeded into a 96-well plate, and then 0.3 μg of the enzyme and 10 μM of the substrate were added to each well of the plate and allowed to react at 30° C. for 60 minutes. Then, Fluor de Lys®-Developer II (BML-KI176) was added thereto and allowed to react for 30 minutes, after which the fluorescence value (Ex 360, Em 460) was measured using a multi-plate reader (Flexstation 3, Molecular Device). The HDAC6 enzyme was tested using human recombinant HDAC6 (382180) (Calbiochem) according to the same protocol as the HDAC1 enzyme activity test method. Based on the resulting values, each IC50 value was calculated using GraphPad Prism4.0 program.

human recombinant HDAC6 = target: T2, human recombinant HDAC6 (Homo sapiens, UniProt Q9UBN7); experiment: HDAC6 enzyme activity inhibition assay (HDAC Fluorimetric Drug Discovery Kit); format: biochemical; details: 30° C. 60 minutes
T2 construct: purchased Calbiochem 382180
T2 sequence (Q9UBN7 1-1215): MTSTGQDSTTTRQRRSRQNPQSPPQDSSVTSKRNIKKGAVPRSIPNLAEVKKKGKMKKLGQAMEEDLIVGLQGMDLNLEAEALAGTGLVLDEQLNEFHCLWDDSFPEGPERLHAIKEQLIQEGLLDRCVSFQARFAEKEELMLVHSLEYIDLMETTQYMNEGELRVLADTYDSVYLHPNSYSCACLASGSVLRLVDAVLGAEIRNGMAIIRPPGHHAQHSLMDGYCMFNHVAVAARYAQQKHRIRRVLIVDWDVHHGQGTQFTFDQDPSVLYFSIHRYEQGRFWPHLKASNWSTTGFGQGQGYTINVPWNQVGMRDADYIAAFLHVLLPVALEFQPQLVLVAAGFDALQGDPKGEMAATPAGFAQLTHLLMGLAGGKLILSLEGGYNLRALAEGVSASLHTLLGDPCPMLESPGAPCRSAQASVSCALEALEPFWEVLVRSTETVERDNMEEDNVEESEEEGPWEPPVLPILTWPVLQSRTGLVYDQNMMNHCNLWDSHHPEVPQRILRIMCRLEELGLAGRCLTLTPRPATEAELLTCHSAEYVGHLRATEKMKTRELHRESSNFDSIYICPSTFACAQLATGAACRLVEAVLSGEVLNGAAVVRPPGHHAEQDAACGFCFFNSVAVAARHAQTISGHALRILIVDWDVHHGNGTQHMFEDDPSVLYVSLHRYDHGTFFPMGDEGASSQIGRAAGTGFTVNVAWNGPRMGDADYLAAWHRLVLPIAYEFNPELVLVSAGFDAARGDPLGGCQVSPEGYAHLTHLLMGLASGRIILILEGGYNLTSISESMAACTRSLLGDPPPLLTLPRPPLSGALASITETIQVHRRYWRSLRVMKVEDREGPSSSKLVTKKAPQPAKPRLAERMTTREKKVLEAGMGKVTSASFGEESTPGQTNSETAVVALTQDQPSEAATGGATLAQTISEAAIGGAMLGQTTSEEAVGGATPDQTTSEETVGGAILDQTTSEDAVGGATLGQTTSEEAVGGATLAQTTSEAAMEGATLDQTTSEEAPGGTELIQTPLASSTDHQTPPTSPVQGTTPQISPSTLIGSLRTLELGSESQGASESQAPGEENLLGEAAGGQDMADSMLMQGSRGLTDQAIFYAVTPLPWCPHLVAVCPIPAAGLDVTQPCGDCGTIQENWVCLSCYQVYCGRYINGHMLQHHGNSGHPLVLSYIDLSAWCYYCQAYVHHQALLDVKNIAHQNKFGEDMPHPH
Experimental: as §1, §2

T1 sequence (Q13547 whole entry): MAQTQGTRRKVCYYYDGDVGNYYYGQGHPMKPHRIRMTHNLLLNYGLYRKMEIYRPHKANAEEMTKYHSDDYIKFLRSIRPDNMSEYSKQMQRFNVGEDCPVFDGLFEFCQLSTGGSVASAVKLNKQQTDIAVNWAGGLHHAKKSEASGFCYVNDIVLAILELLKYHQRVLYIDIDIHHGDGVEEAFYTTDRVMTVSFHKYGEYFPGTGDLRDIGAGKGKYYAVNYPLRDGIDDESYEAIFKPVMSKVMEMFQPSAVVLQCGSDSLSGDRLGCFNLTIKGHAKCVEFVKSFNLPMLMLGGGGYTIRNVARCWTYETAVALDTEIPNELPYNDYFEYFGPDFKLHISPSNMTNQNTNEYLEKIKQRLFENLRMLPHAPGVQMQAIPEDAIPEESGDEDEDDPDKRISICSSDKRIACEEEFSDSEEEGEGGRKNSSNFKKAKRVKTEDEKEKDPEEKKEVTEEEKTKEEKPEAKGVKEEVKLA

Row | Structure (SMILES) | IC50 (human recombinant HDAC1) | IC50 (human recombinant HDAC6)
1 | Fc1ccc(C2(Nc3ncc(-c4nnc(C(F)(F)F)o4)cn3)CC2)cc1Cl [Compound 1723, N-(1-(3-chloro-4-fluorophenyl)cyclopropyl)-5-(5-(trifluoromethyl)-1,3,4-oxadiazol-2-yl)pyrimidin-2-amine] | > 10 µM | 219 nM
2 | FC(F)c1nnc(-c2cnc(NC3(c4ccc(C(F)(F)F)cc4)CC3)nc2)o1 [Compound 1738, 5-(5-(difluoromethyl)-1,3,4-oxadiazol-2-yl)-N-(1-(4-(trifluoromethyl)phenyl)cyclopropyl)pyrimidin-2-amine] | > 10 µM | 132 nM
3 | FC(F)c1nnc(-c2cnc(NC3(c4cccc(C(F)(F)F)c4)CC3)nc2)o1 [Compound 1740, 5-(5-(difluoromethyl)-1,3,4-oxadiazol-2-yl)-N-(1-(3-(trifluoromethyl)phenyl)cyclopropyl)pyrimidin-2-amine] | > 10 µM | 62 nM
4 | FC(F)(F)c1cccc(C2(Nc3ncc(-c4nnc(C(F)(F)F)o4)cn3)CC2)c1 [Compound 1741, 5-(5-(trifluoromethyl)-1,3,4-oxadiazol-2-yl)-N-(1-(3-(trifluoromethyl)phenyl)cyclopropyl)pyrimidin-2-amine] | > 10 µM | 450 nM
5 | FC(F)(F)c1ccc(C2(Nc3ncc(-c4nnc(C(F)(F)F)o4)cn3)CC2)cc1 [Compound 1742, 5-(5-(trifluoromethyl)-1,3,4-oxadiazol-2-yl)-N-(1-(4-(trifluoromethyl)phenyl)cyclopropyl)pyrimidin-2-amine] | > 10 µM | 531 nM
6 | Fc1ccc(C2(Nc3ncc(-c4nnc(C(F)(F)F)o4)cn3)CC2)cc1F [Compound 1780, N-(1-(3,4-difluorophenyl)cyclopropyl)-5-(5-(trifluoromethyl)-1,3,4-oxadiazol-2-yl)pyrimidin-2-amine] | > 10 µM | 420 nM
7 | Fc1cc(F)cc(C2(Nc3ncc(-c4nnc(C(F)F)o4)cn3)CCC2)c1 [Compound 1819, 5-(5-(difluoromethyl)-1,3,4-oxadiazol-2-yl)-N-(1-(3,5-difluorophenyl)cyclobutyl)pyrimidin-2-amine] | > 10 µM | 70 nM
8 | FC(F)c1nnc(-c2cnc(NC3(c4ccc5c(c4)OCO5)CCC3)nc2)o1 [Compound 1820, N-(1-(benzo[d][1,3]dioxol-5-yl)cyclobutyl)-5-(5-(difluoromethyl)-1,3,4-oxadiazol-2-yl)pyrimidin-2-amine] | > 10 µM | 83 nM
9 | FC(F)c1nnc(-c2cnc(NC3(c4ccc(OC(F)(F)F)cc4)CCC3)nc2)o1 [Compound 1822, 5-(5-(difluoromethyl)-1,3,4-oxadiazol-2-yl)-N-(1-(4-(trifluoromethoxy)phenyl)cyclobutyl)pyrimidin-2-amine] | > 10 µM | 282 nM
10 | Fc1cc(F)c(C2(Nc3ncc(-c4nnc(C(F)F)o4)cn3)CCC2)cc1F [Compound 1826, 5-(5-(difluoromethyl)-1,3,4-oxadiazol-2-yl)-N-(1-(2,4,5-trifluorophenyl)cyclobutyl)pyrimidin-2-amine] | > 10 µM | 120 nM
11 | Fc1cccc(C2(Nc3ncc(-c4nnc(C(F)F)o4)cn3)CCC2)c1F [Compound 1827, 5-(5-(difluoromethyl)-1,3,4-oxadiazol-2-yl)-N-(1-(2,3-difluorophenyl)cyclobutyl)pyrimidin-2-amine] | > 10 µM | 43 nM
12 | FC(F)(F)c1nnc(-c2cnc(NC3(c4cccc(Cl)c4Cl)CCC3)nc2)o1 [Compound 1833, N-(1-(2,3-dichlorophenyl)cyclobutyl)-5-(5-(trifluoromethyl)-1,3,4-oxadiazol-2-yl)pyrimidin-2-amine] | > 10 µM | 750 nM
13 | FC(F)(F)c1nnc(-c2cnc(NC3(c4ccc(Cl)c(Cl)c4)CCC3)nc2)o1 [Compound 1835, N-(1-(3,4-dichlorophenyl)cyclobutyl)-5-(5-(trifluoromethyl)-1,3,4-oxadiazol-2-yl)pyrimidin-2-amine] | > 10 µM | 1960 nM
14 | FC(F)(F)c1nnc(-c2cnc(NC3(c4ccc(Cl)cc4Cl)CCC3)nc2)o1 [Compound 1837, N-(1-(2,4-dichlorophenyl)cyclobutyl)-5-(5-(trifluoromethyl)-1,3,4-oxadiazol-2-yl)pyrimidin-2-amine] | > 10 µM | 2520 nM

Next, values leading:

Row | IC50 (human recombinant HDAC1) | IC50 (human recombinant HDAC6) | Structure (SMILES)
15 | > 10 µM | 29 nM | Fc1ccc(C2(Nc3ncc(-c4nnc(C(F)F)o4)cn3)CC2)cc1Cl [Compound 1722, N-(1-(3-chloro-4-fluorophenyl)cyclopropyl)-5-(5-(difluoromethyl)-1,3,4-oxadiazol-2-yl)pyrimidin-2-amine]
16 | > 10 µM | 25 nM | Oc1cccc(C2(Nc3ncc(-c4nnc(C(F)F)o4)cn3)CCC2)c1 [Compound 1761, 3-(1-((5-(5-(difluoromethyl)-1,3,4-oxadiazol-2-yl)pyrimidin-2-yl)amino)cyclobutyl)phenol]
17 | > 10 µM | 78 nM | Fc1ccc(C2(Nc3ncc(-c4nnc(C(F)F)o4)cn3)CCC2)cc1Cl [Compound 1817, N-(1-(3-chloro-4-fluorophenyl)cyclobutyl)-5-(5-(difluoromethyl)-1,3,4-oxadiazol-2-yl)pyrimidin-2-amine]
18 | > 10 µM | 751 nM | Fc1ccc(C2(Nc3ncc(-c4nnc(C(F)(F)F)o4)cn3)CCC2)cc1Cl [Compound 1818, N-(1-(3-chloro-4-fluorophenyl)cyclobutyl)-5-(5-(trifluoromethyl)-1,3,4-oxadiazol-2-yl)pyrimidin-2-amine]
19 | > 10 µM | 32 nM | Fc1ccc(F)c(C2(Nc3ncc(-c4nnc(C(F)F)o4)cn3)CCC2)c1 [Compound 1821, 5-(5-(difluoromethyl)-1,3,4-oxadiazol-2-yl)-N-(1-(2,5-difluorophenyl)cyclobutyl)pyrimidin-2-amine]
20 | > 10 µM | 39 nM | Fc1cccc(F)c1C1(Nc2ncc(-c3nnc(C(F)F)o3)cn2)CCC1 [Compound 1828, 5-(5-(difluoromethyl)-1,3,4-oxadiazol-2-yl)-N-(1-(2,6-difluorophenyl)cyclobutyl)pyrimidin-2-amine]
21 | > 10 µM | 100 nM | FC(F)c1nnc(-c2cnc(NC3(c4cccc(Cl)c4Cl)CCC3)nc2)o1 [Compound 1832, N-(1-(2,3-dichlorophenyl)cyclobutyl)-5-(5-(difluoromethyl)-1,3,4-oxadiazol-2-yl)pyrimidin-2-amine]
22 | > 10 µM | 120 nM | FC(F)c1nnc(-c2cnc(NC3(c4ccc(Cl)c(Cl)c4)CCC3)nc2)o1 [Compound 1834, N-(1-(3,4-dichlorophenyl)cyclobutyl)-5-(5-(difluoromethyl)-1,3,4-oxadiazol-2-yl)pyrimidin-2-amine]
23 | > 10 µM | 200 nM | FC(F)c1nnc(-c2cnc(NC3(c4ccc(Cl)cc4Cl)CCC3)nc2)o1 [Compound 1836, N-(1-(2,4-dichlorophenyl)cyclobutyl)-5-(5-(difluoromethyl)-1,3,4-oxadiazol-2-yl)pyrimidin-2-amine]
24 | > 10 µM | 110 nM | FC(F)c1nnc(-c2cnc(NC3(c4c(Cl)cccc4Cl)CCC3)nc2)o1 [Compound 1838, N-(1-(2,6-dichlorophenyl)cyclobutyl)-5-(5-(difluoromethyl)-1,3,4-oxadiazol-2-yl)pyrimidin-2-amine]
